Results as given in the NIST ThermoML archive (doi:10.1016/j.tca.2010.10.002).
Numbers after ± are expanded uncertainties. One block for each compound: values may come before it.

Conditions: Liquid, DSC

vapor or sublimation pressure (486.57 K): 4 ± 0.4 kPa
SMILES: CCCCCCCCCCCCCCCC(=O)OC [methyl hexadecanoate]

vapor or sublimation pressure (514.61 K): 5.333 ± 0.53 kPa
vapor or sublimation pressure (536.83 K): 9.333 ± 0.94 kPa
SMILES: CCCCCCCC/C=C\CCCCCCCC(=O)OCC [ethyl (Z)-9-octadeceneoate]

vapor or sublimation pressure (502.27 K): 5.333 ± 0.53 kPa
vapor or sublimation pressure (515.13 K): 9.333 ± 0.93 kPa
SMILES: CCCCCCCCCCCCCCCC(=O)OCC [ethyl hexadecanoate]

vapor or sublimation pressure (459.62 K): 4 ± 0.4 kPa
SMILES: CCCCCCCCCCCCCC(=O)OC [methyl tetradecanoate]

vapor or sublimation pressure (537.69 K): 9.333 ± 0.93 kPa
SMILES: CCCCC/C=C\C/C=C\CCCCCCCC(=O)OCC [ethyl linoleate]

vapor or sublimation pressure (520.56 K): 5.333 ± 0.53 kPa
SMILES: CCCCCCCCCCCCCCCCCC(=O)OCC [ethyl octadecanoate]
